Results: US20240165173A1, “METHOD OF REDUCING URIC ACID BY USING LACTOBACILLUS PARACASEI LT12” (priority 2022, published 2024)
Where “and” joins values, the source holds several entries; their conditions need not be identical. Equal values may be shown once.

How the values were obtained:
[1] = system: high uric acid mice model (potassium oxonate and hypoxanthine)
Protocol: (§1) Tested animals are 5-week old male ICR mice purchased from Shanghai JSJ Laboratory Animal Co., Ltd., SPF grade. All mice were grown under the conditions of a temperature of 24±2° C., alternating 12 h light and 12 h dark, and free feeding and drinking for adaptation. After 1 week of adaptation, mice were randomly grouped into […], 7 mice in one group. The groups are normal control group, model group, positive control group, low dose Lactobacillus paracasei LT12 group, and high dose Lactobacillus paracasei LT12 group (see Table 3). Modeling period is two weeks and interfering period is four weeks. During modeling, except for the normal control group, the other groups were subjected to gavage with 300 mg/kg potassium oxonate and hypoxanthine (formulated into a suspension using 0.5% CMC-Na solution) every day for high uric acid modeling. During interference, except for the normal control group, the other groups were subjected to gavage with 300 mg/kg potassium oxonate and hypoxanthine every day for continued modeling. 2 h after modeling, each group of mice were administered at the dose according to FIG. 2. The drug samples for each group were dissolved in saline. The same amount of saline was administered to normal groups and model group.
(§2) During modeling, blood was collected through cutting the tail to detect changes in serum uric acid every week. At the last two days of the experiment, fresh feces of mice of each group were collected and kept in −20° C. refrigerator. Before sacrifice, mice were fasted for 12 h. The last modeling was conducted. Blood was collected 1 h after modeling followed by sacrifice and dissection. Mice whole blood is placed at 4° C. for 2 h followed by centrifugation at 3000 rpm for 10 min. The serum was aliquoted and stored in −80° C. refrigerator. Mice liver, kidneys, and colon were collected. One of the kidneys was preserved in 4% […] for pathological analysis. Other tissue samples were immediately freezed in liquid nitrogen and stored at −80 ° C. for preservation.
(§3) The levels of uric acid, creatinine, blood urea nitrogen, lactate dehydrogenase, xanthine oxidase (XOD), oxidative stress levels (glutathione (GSH), superoxide dismutase (SOD), glutathione peroxidase (GSH-Px), malondialdehyde (MDA), inflammatory factors (TNF-alpha, IL-1β, and IL-6)) were detected according to the detection method described in the specification in the kits. Pathological analysis on renal tissue were completed in corporation with Wuhan Servicebio Technology Co., Ltd., China. Immunoblotting analysis on renal uric acid transporter proteins were conducted according to internal methods in labs.

xanthine oxidase (XOD) = assay type: in vivo, ICR mice; details: mice of the high uric acid model, after interference
Protocol: Tested animals are 5-week old male ICR mice purchased from Shanghai JSJ Laboratory Animal Co., Ltd., SPF grade. All mice were grown under the conditions of a temperature of 24±2° C., alternating 12 h light and 12 h dark, and free feeding and drinking for adaptation. After 1 week of adaptation, mice were randomly grouped into 10 groups, 7 mice in one group. […] Modeling period is two weeks and interfering period is four weeks. During modeling, except for the normal control group, the other groups were subjected to gavage with 300 mg/kg potassium oxonate and hypoxanthine (formulated into a suspension using 0.5% CMC-Na solution) every day for high uric acid modeling. During interference, except for the normal control group, the other groups were subjected to gavage with 300 mg/kg potassium oxonate and hypoxanthine every day for continued modeling. 2 h after modeling, each group of mice were administered at the dose according to FIG. 2. The drug samples for each group were dissolved in saline. […]
The levels of uric acid, creatinine, blood urea nitrogen, lactate dehydrogenase, xanthine oxidase (XOD), oxidative stress levels (glutathione (GSH), superoxide dismutase (SOD), glutathione peroxidase (GSH-Px), malondialdehyde (MDA), inflammatory factors (TNF-alpha, IL-1β, and IL-6)) were detected according to the detection method described in the specification in the kits. […]

[2] = system: high uric acid mice model (potassium oxonate and hypoxanthine); assay type: in vivo, ICR mice; set-up: inflammatory cell infiltration (pathological score) / renal tubules hydropic degeneration (pathological score) / renal tubules atrophy (pathological score) / renal tubules dilation (pathological score) / connective tissue proliferation (pathological score) / Protein cast (pathological score): scale not given here
Protocol: as §1, §2, §3

[3] = after interference for four weeks, gavage, compared with model and normal group
[4] = Positive group, score per mouse 3-1 to 3-7

Structure (SMILES): Oc1ncnc2[nH]ncc12 [allopurinol]
- blood urea nitrogen levels [1, 3]: increased
- serum creatinine levels [1, 3]: increased
- serum uric acid levels [1, 3]: reduced to the levels of the normal group
- renal toxicity ([1]; mouse, in vivo): strong renal toxicity was generated
- activities of xanthine oxidase in serum and liver (xanthine oxidase (XOD)): the lowest
- Protein cast (pathological score) [2, 4]: 1 and 0 (6×)
- connective tissue proliferation (pathological score) [2, 4]: 0 (5×) and 1 (2×)
- inflammatory cell infiltration (pathological score) [2, 4]: 0 (2×) and 1 (5×)
- renal tubules atrophy (pathological score) [2, 4]: 0 (5×) and 1 (2×)
- renal tubules dilation (pathological score) [2, 4]: 0 (3×) and 1 (4×)
- renal tubules hydropic degeneration (pathological score) [2, 4]: 1 (4×) and 0 and 2 (2×)
- Total score (pathological scores of mice kidneys) ([2]; Positive group, sum over 7 mice): 22
- damages in renal tissues ([2]; pathological analysis, high uric acid mice): severe renal damages were caused
